Results published in PubChem BioAssay (NCI).
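Compound exposure: 48 hours, 5 concentrations, 96-well plates. GI50: concentration for 50% inhibition of growth. The concentration for full growth arrest is given as TGI.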

Tests used:
Experiment in all cases: growth of human tumour cells (NCI), 48 h
[1] = test system: 786-0 renal
[2] = test system: SNB-75 CNS
[3] = test system: HOP-62 NSCLC
[4] = test system: HOP-92 NSCLC
[5] = test system: SF-295 CNS
[6] = test system: OVCAR-4 ovarian
[7] = test system: BT-549 breast
[8] = test system: CAKI-1 renal
[9] = test system: SF-268 CNS
[10] = test system: UO-31 renal
[11] = test system: SK-MEL-28 melanoma
[12] = test system: OVCAR-8 ovarian
[13] = test system: OVCAR-5 ovarian
[14] = test system: SK-MEL-2 melanoma
[15] = test system: SN12C renal
[16] = test system: SR leukemia
[17] = test system: PC-3 prostate
[18] = test system: NCI-H522 lung
[19] = test system: UACC-62 melanoma
[20] = test system: ACHN renal
[21] = test system: NCI-H226 lung
[22] = test system: IGROV1 ovarian
[23] = test system: SF-539 CNS
[24] = test system: MOLT-4 leukemia
[25] = test system: A549 NSCLC
[26] = test system: NCI-H460 lung
[27] = test system: A498 renal
[28] = test system: HL-60(TB) leukemia
[29] = test system: EKVX NSCLC
[30] = test system: UACC-257 melanoma
[31] = test system: M14 melanoma
[32] = test system: HT29 colon
[33] = test system: KM12 colon
[34] = test system: SK-MEL-5 melanoma
[35] = test system: CCRF-CEM leukemia
[36] = test system: TK-10 renal
[37] = test system: MALME-3M melanoma
[38] = test system: SW-620 colon
[39] = test system: COLO 205 colon
[40] = test system: MCF7 breast
[41] = test system: NCI/ADR-RES ovarian
[42] = test system: HS 578T breast
[43] = test system: SK-OV-3 ovarian
[44] = test system: NCI-H23 lung
[45] = test system: K-562 leukemia
[46] = test system: MDA-MB-435
[47] = test system: HCT-116 colon
[48] = test system: HCT-15 colon
[49] = test system: RPMI-8226 leukemia
[50] = test system: DU-145 prostate
[51] = test system: U251 CNS
[52] = test system: T-47D breast
[53] = test system: MDA-MB-231 breast
[54] = test system: RXF 393 renal
[55] = test system: SNB-19 CNS
[56] = test system: HCC-2998 colon

## Nc1ccccc1NC(=O)c1ccc(NC(=O)C/C=C/c2cccnc2)cc1
[1]
  GI50: 2740 nM
  TGI: > 50000 nM
[2]
  GI50: 1260 nM
  TGI: > 50000 nM
[3]
  GI50: 2000 nM
  TGI: > 50000 nM
[4]
  GI50: 341 nM
  TGI: 8330 nM
[5]
  GI50: 1670 nM
  TGI: 11300 nM
[6]
  GI50: 3680 nM
  TGI: > 50000 nM
[7]
  GI50: 1170 nM
  TGI: 4720 nM
[8]
  GI50: 2390 nM
  TGI: > 50000 nM
[9]
  GI50: 1930 nM
  TGI: > 50000 nM
[10]
  GI50: 1540 nM
  TGI: > 50000 nM
[11]
  GI50: 962 nM
  TGI: 2650 nM
[12]
  GI50: 159 nM
  TGI: > 50000 nM
[13]
  GI50: 803 nM
  TGI: > 50000 nM
[14]
  GI50: 2390 nM
  TGI: > 50000 nM
[15]
  GI50: 320 nM
  TGI: > 50000 nM
[16]
  GI50: 382 nM
  TGI: > 50000 nM
[17]
  GI50: 1260 nM
  TGI: > 50000 nM
[18]
  GI50: 513 nM
  TGI: > 50000 nM
[19]
  GI50: 1060 nM
  TGI: 4980 nM
[20]
  GI50: 2240 nM
  TGI: > 50000 nM
[21]
  GI50: 1430 nM
  TGI: > 50000 nM
[22]
  GI50: 1140 nM
  TGI: > 50000 nM
[23]
  GI50: 181 nM
  TGI: 26400 nM
[24]
  GI50: 1050 nM
  TGI: > 50000 nM
[25]
  GI50: 2800 nM
  TGI: > 50000 nM
[26]
  GI50: 1450 nM
  TGI: > 50000 nM
[27]
  GI50: 586 nM
  TGI: 2290 nM
[28]
  GI50: 448 nM
  TGI: > 50000 nM
[29]
  GI50: 2250 nM
  TGI: > 50000 nM
[30]
  GI50: 1230 nM
  TGI: > 50000 nM
[31]
  GI50: 1370 nM
  TGI: > 50000 nM
[32]
  GI50: 1170 nM
  TGI: > 50000 nM
[33]
  GI50: 8480 nM
  TGI: > 50000 nM
[34]
  GI50: 957 nM
  TGI: 1910 nM
[35]
  GI50: 225 nM
  TGI: > 50000 nM
[36]
  GI50: 103 nM
  TGI: > 50000 nM
[37]
  GI50: 247 nM
  TGI: 3560 nM
[38]
  GI50: 231 nM
  TGI: > 50000 nM
[39]
  GI50: 813 nM
  TGI: 7100 nM
[40]
  GI50: 1090 nM
  TGI: 8320 nM
[41]
  GI50: 3230 nM
  TGI: > 50000 nM
[42]
  GI50: 1660 nM
  TGI: > 50000 nM
[43]
  GI50: 2400 nM
  TGI: > 50000 nM
[44]
  GI50: 1550 nM
  TGI: 26600 nM
[45]
  GI50: 289 nM
  TGI: > 50000 nM
[46]
  GI50: 1390 nM
  TGI: 8020 nM
[47]
  GI50: 176 nM
  TGI: 4370 nM
[48]
  GI50: 1320 nM
  TGI: > 50000 nM
[49]
  GI50: 605 nM
  TGI: 5570 nM
[50]
  GI50: 905 nM
  TGI: 2970 nM
[51]
  GI50: 1040 nM
  TGI: > 50000 nM
[52]
  GI50: 623 nM
  TGI: > 50000 nM
[53]
  GI50: 6420 nM
  TGI: > 50000 nM
[54]
  GI50: 784 nM
  TGI: 3860 nM
[55]
  GI50: 2250 nM
  TGI: > 50000 nM
[56]
  GI50: 953 nM
  TGI: 4540 nM
